≈ marks a conversion by molar mass, not a printed value.
Key:
Solubility at pH 6.8 = format: physicochemical; settings: pH 6.8, aqueous buffer, thermodynamic from solid; read-out: solubility
Outline: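 Solubility was measured at pH 6.8 following the cited Zhou et al. (2007) procedure.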

[1] = system: PKB Ser473 phosphorylation in Rat1-myr-HA-p110 alpha cells; experiment: Reverse protein array assay, PKB Ser473 phosphorylation in Rat1-myr-p110 alpha cells; format: cell-based; settings: 0.5 h, pAkt Ser473, 30 minutes compound incubation, read-out: p-PKB IC50
Outline: (§1)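 Lysates were arrayed at four dilutions, and phospho-PKB Ser473 was quantified by relative fluorescence signal. They came from Rat1-myr-HA-p110 alpha, beta or delta cells exposed for 30 min at 37 °C to an 8-point compound series with 0.2% DMSO constant.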

[2] = system: PKB Ser473 phosphorylation in Rat1-myr-HA-p110 beta cells; experiment: Reverse protein array assay, PKB Ser473 phosphorylation in Rat1-myr-p110 beta cells; format: cell-based; settings: 0.5 h, pAkt Ser473, 30 minutes incubation, read-out: p-PKB IC50
Outline: as §1

[3] = system: PKB Ser473 phosphorylation in Rat1-myr-HA-p110 delta cells; experiment: Reverse protein array assay, PKB Ser473 phosphorylation in Rat1-myr-p110 delta cells; format: cell-based; settings: read-out: p-PKB IC50
Outline: as §1

[4] = system: S6 Ribosomal Protein phosphorylation Ser235/236 in TSC1 null mouse embryo fibroblast (MEF) cells; experiment: Reverse protein array assay, S6 Ribosomal Protein phosphorylation Ser235/236 in TSC1 null MEF cells; format: cell-based; settings: 1 h, pS6 ribosomal protein Ser235/236, 60 minutes incubation, read-out: p-S6 IC50
Outline: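 TSC1−/− MEFs, seeded and held ≥20 h at 37 °C/5% CO2, were exposed to 8-step serial compound dilutions (0.02% DMSO final; DMSO vehicle control) for 60 min at 37 °C. Cells were then lysed on ice for 10 min and lysates spotted onto reverse protein array chips.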

Row | SMILES | solubility (Solubility at pH 6.8) | IC50 [1] | IC50 [2] | IC50 [3] | IC50 [4]
1 | Cc1nn(C)cc1-n1c(=O)n(C)c2cnc3ccc(-c4ccc(N(C)C)nc4)cc3c21 [Example 4.5, 8-(6-Dimethylamino-pyridin-3-yl)-1-(1,3-dimethyl-1H-pyrazol-4-yl)-3-methyl-1,3-dihydro-imidazo[4,5-c]quinolin-2-one] | 7 µg/mL (≈ 16.9 µM) | 22 nM | 17 nM | 38 nM | 13 nM
2 | CCOc1ccc(-c2ccc3ncc4c(c3c2)n(-c2c(C)nn(C)c2C)c(=O)n4C)cn1 [Example 3.3, 8-(6-Ethoxy-pyridin-3-yl)-3-methyl-1-(1,3,5-trimethyl-1H-pyrazol-4-yl)-1,3-dihydro-imidazo[4,5-c]quinolin-2-one] | 104 µg/mL (≈ 243 µM) | 50 nM | 548 nM | 927 nM | 255 nM
3 | Cc1cnn(C)c1-n1c(=O)n(C)c2cnc3ccc(-c4cncc(OC(C)C)c4)cc3c21 [Example 58.3, 1-(2,4-Dimethyl-2H-pyrazol-3-yl)-8-(5-isopropoxy-pyridin-3-yl)-3-methyl-1,3-dihydro-imidazo[4,5-c]quinolin-2-one] | 6 µg/mL (≈ 14 µM) | 383 nM | 281 nM | 577 nM | 174 nM
4 | CCOc1cc(-c2ccc3ncc4c(c3c2)n(-c2c(C)nn(CC(=O)N(C)C)c2C)c(=O)n4C)cnc1C [Example 85.3, 2-{4-[8-(5-Ethoxy-6-methyl-pyridin-3-yl)-3-methyl-2-oxo-2,3-dihydro-imidazo[4,5-c]quinolin-1-yl]-3,5-dimethyl-pyrazol-1-yl}-N,N-dimethyl-acetamide] | 76 µg/mL (≈ 148 µM) | 296 nM | 766 nM | 749 nM | 111 nM
5 | CCNc1cc(-c2ccc3ncc4c(c3c2)n(-c2cn(CC)nc2C)c(=O)n4C)cnc1CO [Example 155.2, 8-(5-Ethylamino-6-hydroxymethyl-pyridin-3-yl)-1-(1-ethyl-3-methyl-1H-pyrazol-4-yl)-3-methyl-1,3-dihydro-imidazo[4,5-c]quinolin-2-one] | > 458 µg/mL | 5 nM | 7 nM | 13 nM | 1 nM
6 | CCOc1cncc(-c2ccc3ncc4c(c3c2)n(-c2cn(CC(=O)N(C)C)nc2C)c(=O)n4C)c1 [Example 56.2, 2-{4-[8-(5-Ethoxy-pyridin-3-yl)-3-methyl-2-oxo-2,3-dihydro-imidazo[4,5-c]quinolin-1-yl]-3-methyl-pyrazol-1-yl}-N,N-dimethyl-acetamide] | > 486 µg/mL | 303 nM | 409 nM | 468 nM | 10 nM
7 | Cc1nn(C)cc1-n1c(=O)n(C)c2cnc3ccc(-c4cnc5c(ccn5C)c4)cc3c21 [Example 116, 1-(1,3-Dimethyl-1H-pyrazol-4-yl)-3-methyl-8-(1-methyl-1H-pyrrolo[2,3-b]pyridin-5-yl)-1,3-dihydro-imidazo[4,5-c]quinolin-2-one] | 3 µg/mL (≈ 7.08 µM) | < 5 nM | 18 nM | 34 nM | 6 nM
8 | Cc1nn(C(C)C)cc1-n1c(=O)n(C)c2cnc3ccc(-c4cnc(N)c(CO)c4)cc3c21 [Example 169.1, 8-(6-Amino-5-hydroxymethyl-pyridin-3-yl)-1-(1-isopropyl-3-methyl-1H-pyrazol-4-yl)-3-methyl-1,3-dihydro-imidazo[4,5-c]quinolin-2-one] | 289 µg/mL (≈ 652 µM) | 27 nM | 37 nM | 70 nM | 5.63 nM
9 | CO[C@@H]1CCN(c2ccc(-c3ccc4ncc5c(c4c3)n(-c3cn(C)nc3C)c(=O)n5C)cn2)C1 [Example 213.1, 1-(1,3-Dimethyl-1H-pyrazol-4-yl)-8-[6-((R)-3-methoxy-pyrrolidin-1-yl)-pyridin-3-yl]-3-methyl-1,3-dihydro-imidazo[4,5-c]quinolin-2-one] | 217 µg/mL (≈ 462 µM) | 125 nM | 342 nM | 631 nM | 49.4 nM
10 | Cc1nn(C)cc1-n1c(=O)n(C)c2cnc3ccc(-c4cncc(N(C)C(C)C)c4)cc3c21 [Example 173, 1-(1,3-Dimethyl-1H-pyrazol-4-yl)-8-[5-(isopropyl-methyl-amino)-pyridin-3-yl]-3-methyl-1,3-dihydro-imidazo[4,5-c]quinolin-2-one] | 8 µg/mL (≈ 18.1 µM) | 16 nM | 29 nM | 50 nM | 2 nM

Now from value to compound, other results behind:

Row | solubility (Solubility at pH 6.8) | IC50 [1] | IC50 [2] | IC50 [3] | SMILES | IC50 [4]
11 | 8 µg/mL (≈ 17.5 µM) | 11 nM | 223 nM | 45 nM | CCNc1ncc(-c2ccc3ncc4c(c3c2)n(-c2cn(C)nc2C)c(=O)n4C)cc1COC [Example 206.1, 1-(1,3-Dimethyl-1H-pyrazol-4-yl)-8-(6-ethylamino-5-methoxymethyl-pyridin-3-yl)-3-methyl-1,3-dihydro-imidazo[4,5-c]quinolin-2-one] | 3 nM
12 | > 442 µg/mL | < 5 nM | < 5 nM | 7 nM | CCNc1cc(-c2ccc3ncc4c(c3c2)n(-c2cn(CC)nc2C)c(=O)n4C)cnc1C [Example 87.3, 8-(5-Ethylamino-6-methyl-pyridin-3-yl)-1-(1-ethyl-3-methyl-1H-pyrazol-4-yl)-3-methyl-1,3-dihydro-imidazo[4,5-c]quinolin-2-one] | 6 nM
13 | 27 µg/mL (≈ 54.6 µM) | 12 nM | 38 nM | 72 nM | Cc1nn(C)cc1-n1c(=O)n(C)c2cnc3ccc(-c4cnc(CO)c(OC(CF)CF)c4)cc3c21 [Example 192, 1-(1,3-Dimethyl-1H-pyrazol-4-yl)-8-[5-(2-fluoro-1-fluoromethyl-ethoxy)-6-hydroxymethyl-pyridin-3-yl]-3-methyl-1,3-dihydro-imidazo[4,5-c]quinolin-2-one] | 5 nM
14 | 4 µg/mL (≈ 9.53 µM) | < 5 nM | 6 nM | 12 nM | Cc1nn(C)cc1-n1c(=O)n(C)c2cnc3ccc(-c4cnc(N)c(Cl)c4)cc3c21 [Example 148.2, 8-(6-Amino-5-chloro-pyridin-3-yl)-1-(1,3-dimethyl-1H-pyrazol-4-yl)-3-methyl-1,3-dihydro-imidazo[4,5-c]quinolin-2-one] | 1 nM
15 | 3 µg/mL (≈ 6.78 µM) | 6 nM | 37 nM | 24 nM | CCOc1cc(-c2ccc3ncc4c(c3c2)n(-c2cn(C)nc2C)c(=O)n4C)cnc1CC [Example 187, 1-(1,3-Dimethyl-1H-pyrazol-4-yl)-8-(5-ethoxy-6-ethyl-pyridin-3-yl)-3-methyl-1,3-dihydro-imidazo[4,5-c]quinolin-2-one] | 1.89 nM
16 | 8 µg/mL (≈ 18.7 µM) | < 5 nM | 13 nM | 42 nM | CCN(C)c1ccc(-c2ccc3ncc4c(c3c2)n(-c2cn(C)nc2C)c(=O)n4C)cn1 [Example 98.1, 1-(1,3-Dimethyl-1H-pyrazol-4-yl)-8-[6-(ethyl-methyl-amino)-pyridin-3-yl]-3-methyl-1,3-dihydro-imidazo[4,5-c]quinolin-2-one] | 3 nM
